# Earlier results, collected in patent US20100028426A1, “TIME-SPECIFIC DELAYED/PULSATILE RELEASE DOSAGE FORMS” (POLICHEM S.A., priority 2007, published 2010).
# How the values were obtained:
# [1] = in vivo
# [2] = tested on: sleep disorders
compound,measurement,setting,value
CCN(C(C)=O)c1cccc(-c2ccnc3c(C#N)cnn23)c1 [Zaleplon],time to peak concentration (t max),[1],approximately 1 hour
same,time to sleep onset (TSO),[2]; in vivo,effective in shortening the time to sleep onset
same,total sleep time and number of awakening,[2]; oral immediate release formulation taken at bed time,"neither increases total sleep time, nor decreases the number of awakening"
